Measured values as given in doi:10.1101/252742v1 (bioRxiv, 2018).

Key:
NOKs and MCF10A cells = assay: DNA synthesis by EdU incorporation, non-tumorigenic cells; format: cell-based, human; settings: 30 μM peptide for 1, 3 or 6 hr (up to 16 hr), then EdU 45 min
[1] = Plasma pharmacokinetics in mice; format: in vivo; settings: single intravenous (i.v.) injection of 0.597 mg/kg
[2] = Stability of peptide incubated in human plasma; format: in vitro ADME; settings: incubated in PBS or human plasma for up to 72h at 37°C, then tested for activity
[3] = system: normal oral keratinocytes (NOKs), human tonsillar epithelial cells (HTEs), HaCaT keratinocytes and MCF10A cells; assay: Cell proliferation assay; format: cell-based; settings: 0, 3, 10 or 30 μM peptide, four-day treatment; cell number as % of untreated
PCNA = assay: DNA-bound PCNA staining on chromatin; format: cell-based, human; settings: UM-SCC47, detergent-extracted after 3 hr treatment with 30 μM peptide
HaCaT keratinocytes = assay: Cell cycle analysis by flow cytometry; format: cell-based, human; settings: 30 uM peptide, 16 hr
UM-SCC47 cells [4] = format: cell-based, human; settings: UM-SCC47, 30 μM peptide for 3 hr, EdU for the last 45 min
Chk1, Chk2, H2AX = assay: DNA damage response effector activation by western blot; format: cell-based, human; settings: UM-SCC47 or MDA-MB-231 cells, 30 μM peptide up to 6 hr
p38MAPK = p38MAPK activation; format: cell-based, human; settings: NOKs, 30 μM peptide, 15 min to 16 hr
UM-SCC47 cells [5] = assay: Cell cycle analysis by flow cytometry; format: cell-based, human; settings: UM-SCC47, 30 uM peptide
c-Abl = c-Abl activity; format: cell-based, human; settings: UM-SCC47, 30 μM peptide for 3 hr

SSTNEGFR
DNA synthesis (EdU incorporation) (NOKs and MCF10A cells): no inhibition of DNA synthesis | half-life in plasma [1]: ~ 42 hr | stability in human plasma [2]: remarkably stable | growth of non-tumorigenic cells [3]: not affected | PCNA retention on chromatin (PCNA): loss of PCNA | cells in G1 (HaCaT keratinocytes): 36.6% | cells in S (HaCaT keratinocytes): 57.0% | EdU incorporation (UM-SCC47 cells [4]): near complete loss of EdU incorporation | activation of DNA damage response effectors (Chk1, Chk2, γH2AX) (Chk1, Chk2, H2AX): fails to activate Chk1 or Chk2 | p38MAPK activation in non-transformed cells (p38MAPK): fail to activate p38MAPK | cells in G1 (UM-SCC47 cells [5]; 3 hr): 53.1% | cells in G2 (UM-SCC47 cells [5]; 3 hr): 0.0% | cells in S (UM-SCC47 cells [5]; 3 hr): 46.9% | cells in G1 (UM-SCC47 cells [5]; 16 hr): 48.5% | cells in G2 (UM-SCC47 cells [5]; 16 hr): 1.7% | cells in S (UM-SCC47 cells [5]; 16 hr): 49.8% | c-Abl activity (pY245, pY412) (c-Abl): inactivates c-Abl
